Substitutions are numbered along the chain they refer to. Active and inactive are the calls of the source. The calls are words filed in the database; no cut-off is given here.
Tests used:
[1] = Cytotoxicity against human HepG2 cells after 72 hrs by CCK8 assay; assay type: cell-based
[2] = Cytotoxicity against HEK293T cells after 72 hrs by CCK8 assay; assay type: cell-based, HEK-293T; conditions: human
[3] = biological target: T1, 4,4'-diapophytoene desaturase (4,4'-diaponeurosporene-forming) (Staphylococcus aureus (strain Newman), UniProt O07855); assay: Inhibition of CrtN in Staphylococcus aureus Newman assessed as reduction in staphyloxanthin levels after 48 hrs by spectrophotometric method-based pigment inhibition assay; parameters: species or system Staphylococcus aureus subsp. aureus str. Newman
T1 sequence (O07855 whole entry): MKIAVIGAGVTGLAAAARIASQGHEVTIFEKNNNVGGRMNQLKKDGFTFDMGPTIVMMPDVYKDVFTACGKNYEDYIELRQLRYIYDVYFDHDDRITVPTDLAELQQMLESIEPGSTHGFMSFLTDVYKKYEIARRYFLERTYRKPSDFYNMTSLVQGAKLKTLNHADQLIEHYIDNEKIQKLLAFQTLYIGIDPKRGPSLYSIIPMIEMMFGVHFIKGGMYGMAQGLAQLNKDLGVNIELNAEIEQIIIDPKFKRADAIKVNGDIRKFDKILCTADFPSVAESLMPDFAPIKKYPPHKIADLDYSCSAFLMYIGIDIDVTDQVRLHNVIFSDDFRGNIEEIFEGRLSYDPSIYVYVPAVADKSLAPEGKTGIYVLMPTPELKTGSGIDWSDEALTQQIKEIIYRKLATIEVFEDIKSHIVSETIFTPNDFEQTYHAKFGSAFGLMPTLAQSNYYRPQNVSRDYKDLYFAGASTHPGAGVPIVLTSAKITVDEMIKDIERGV

Staphylococcus aureus [4] = assay: Antibacterial activity against vancomycin-intermediate Staphylococcus aureus Mu50 infected in BALB/c mouse assessed as reduction of bacterial burden in liver at 0.4 mg, ip bid for 3.5 days administered 6 hrs post bacterial infection measured 84 hrs post infection; assay type: functional, organism-based
Staphylococcus aureus [5] = assay: Antibacterial activity against linezolid-resistant Staphylococcus aureus NRS271 infected in BALB/c mouse assessed as reduction of bacterial burden in heart at 0.1 mg, ip bid administered at 24 hrs prior to bacterial infection dosed at 12 intervals for 4.5 days
Staphylococcus aureus [6] = assay: Antibacterial activity against linezolid-resistant Staphylococcus aureus NRS271 infected in BALB/c mouse assessed as reduction of bacterial burden in liver at 0.1 mg, ip bid administered at 12 hrs prior to bacterial infection dosed at 12 intervals for 4.5 days; assay type: functional, organism-based
Staphylococcus aureus [7] = assay: Antibacterial activity against vancomycin-intermediate Staphylococcus aureus Mu50 infected in BALB/c mouse assessed as reduction of bacterial burden in liver at 0.4 mg, ip bid administered at 12 hrs prior to bacterial infection dosed at 12 intervals for 4.5 days; assay type: functional, organism-based
Staphylococcus aureus [8] = assay: Antibacterial activity against vancomycin-intermediate Staphylococcus aureus Mu50 infected in BALB/c mouse assessed as reduction of bacterial burden in liver at 0.1 mg, ip bid for 3.5 days administered 6 hrs post bacterial infection measured 84 hrs post infection; assay type: functional, organism-based
Staphylococcus aureus [9] = assay: Antibacterial activity against linezolid-resistant Staphylococcus aureus NRS271 infected in BALB/c mouse assessed as reduction of bacterial burden in liver at 0.4 mg, ip bid administered at 12 hrs prior to bacterial infection dosed at 12 intervals for 4.5 days; assay type: functional, organism-based
Staphylococcus aureus [10] = assay: Antibacterial activity against vancomycin-intermediate Staphylococcus aureus Mu50 infected in BALB/c mouse assessed as reduction of bacterial burden in heart at 0.4 mg, ip bid for 3.5 days administered 6 hrs post bacterial infection measured 84 hrs post infection relative to control; assay type: functional
Staphylococcus aureus [11] = assay: Antibacterial activity against linezolid-resistant Staphylococcus aureus NRS271 infected in BALB/c mouse assessed as reduction of bacterial burden in heart at 0.4 mg, ip bid administered at 24 hrs prior to bacterial infection dosed at 12 intervals for 4.5 days
Staphylococcus aureus [12] = assay: Antibacterial activity against vancomycin-intermediate Staphylococcus aureus Mu50 infected in BALB/c mouse assessed as reduction of bacterial burden in heart at 0.1 mg, ip bid for 3.5 days administered 6 hrs post bacterial infection measured 84 hrs post infection relative to control; assay type: functional
Staphylococcus aureus [13] = assay: Antibacterial activity against vancomycin-intermediate Staphylococcus aureus Mu50 infected in BALB/c mouse assessed as reduction of bacterial burden in liver at 0.1 mg, ip bid administered at 12 hrs prior to bacterial infection dosed at 12 intervals for 4.5 days; assay type: functional, organism-based
[14] = Half life in human liver microsomes at 2 uM by LC-MS/MS analysis; assay type: ADME, microsome
[15] = Solubility of the compound in water at 10 mg measured after 24 hrs by HPLC method; assay type: physicochemical
[16] = biological target: Voltage-gated inwardly rectifying potassium channel KCNH2 (Homo sapiens, UniProt Q12809); assay: Inhibition of recombinant human ERG expressed in CHO cells at -80 mV holding potential measured after 3 minutes by automated whole cell patch clamp Qpatch method; assay type: cell-based
[17] = biological target: T2, 4,4'-diapophytoene desaturase (4,4'-diaponeurosporene-forming) (Staphylococcus aureus (strain MW2), UniProt Q8NUQ6); assay: Inhibition of CrtN in methicillin-resistant Staphylococcus aureus USA400 MW2 assessed as reduction in staphyloxanthin levels after 48 hrs by spectrophotometric method-based pigment inhibition assay; parameters: species or system Staphylococcus aureus subsp. aureus MW2
T2 sequence (Q8NUQ6 whole entry): T1 sequence (O07855 whole entry) with R500Q

[18] = biological target: T2, 4,4'-diapophytoene desaturase (4,4'-diaponeurosporene-forming); assay: Inhibition of CrtN in methicillin-resistant Staphylococcus aureus LAC USA300 assessed as reduction in staphyloxanthin levels after 48 hrs by spectrophotometric method-based pigment inhibition assay; parameters: species or system Staphylococcus aureus subsp. aureus USA300
[19] = biological target: T1, 4,4'-diapophytoene desaturase (4,4'-diaponeurosporene-forming); assay: Inhibition of Staphylococcus aureus Newman […]-tagged CrtN expressed in Escherichia coli BL21(DE3))/pET28a::CrtN assessed as reduction in staphyloxanthin levels using diapophytoene as substrate after overnight incubation; parameters: species or system Staphylococcus aureus subsp. aureus str. Newman
[20] = biological target: T1, 4,4'-diapophytoene desaturase (4,4'-diaponeurosporene-forming); assay: Inhibition of CrtN in linezolid-resistant Staphylococcus aureus NRS271 assessed as reduction in staphyloxanthin levels after 48 hrs by spectrophotometric method-based pigment inhibition assay
[21] = biological target: T3, 4,4'-diapophytoene desaturase (4,4'-diaponeurosporene-forming) (Staphylococcus aureus (strain Mu50 / ATCC 700699), UniProt Q99R76); assay: Inhibition of CrtN in vancomycin-intermediate Staphylococcus aureus Mu50 assessed as reduction in staphyloxanthin levels after 48 hrs by spectrophotometric method-based pigment inhibition assay; parameters: species or system Staphylococcus aureus subsp. aureus Mu50
T3 sequence (Q99R76 whole entry): T1 sequence (O07855 whole entry)

Voltage-gated inwardly rectifying potassium channel KCNH2, sequence (Q12809 whole entry): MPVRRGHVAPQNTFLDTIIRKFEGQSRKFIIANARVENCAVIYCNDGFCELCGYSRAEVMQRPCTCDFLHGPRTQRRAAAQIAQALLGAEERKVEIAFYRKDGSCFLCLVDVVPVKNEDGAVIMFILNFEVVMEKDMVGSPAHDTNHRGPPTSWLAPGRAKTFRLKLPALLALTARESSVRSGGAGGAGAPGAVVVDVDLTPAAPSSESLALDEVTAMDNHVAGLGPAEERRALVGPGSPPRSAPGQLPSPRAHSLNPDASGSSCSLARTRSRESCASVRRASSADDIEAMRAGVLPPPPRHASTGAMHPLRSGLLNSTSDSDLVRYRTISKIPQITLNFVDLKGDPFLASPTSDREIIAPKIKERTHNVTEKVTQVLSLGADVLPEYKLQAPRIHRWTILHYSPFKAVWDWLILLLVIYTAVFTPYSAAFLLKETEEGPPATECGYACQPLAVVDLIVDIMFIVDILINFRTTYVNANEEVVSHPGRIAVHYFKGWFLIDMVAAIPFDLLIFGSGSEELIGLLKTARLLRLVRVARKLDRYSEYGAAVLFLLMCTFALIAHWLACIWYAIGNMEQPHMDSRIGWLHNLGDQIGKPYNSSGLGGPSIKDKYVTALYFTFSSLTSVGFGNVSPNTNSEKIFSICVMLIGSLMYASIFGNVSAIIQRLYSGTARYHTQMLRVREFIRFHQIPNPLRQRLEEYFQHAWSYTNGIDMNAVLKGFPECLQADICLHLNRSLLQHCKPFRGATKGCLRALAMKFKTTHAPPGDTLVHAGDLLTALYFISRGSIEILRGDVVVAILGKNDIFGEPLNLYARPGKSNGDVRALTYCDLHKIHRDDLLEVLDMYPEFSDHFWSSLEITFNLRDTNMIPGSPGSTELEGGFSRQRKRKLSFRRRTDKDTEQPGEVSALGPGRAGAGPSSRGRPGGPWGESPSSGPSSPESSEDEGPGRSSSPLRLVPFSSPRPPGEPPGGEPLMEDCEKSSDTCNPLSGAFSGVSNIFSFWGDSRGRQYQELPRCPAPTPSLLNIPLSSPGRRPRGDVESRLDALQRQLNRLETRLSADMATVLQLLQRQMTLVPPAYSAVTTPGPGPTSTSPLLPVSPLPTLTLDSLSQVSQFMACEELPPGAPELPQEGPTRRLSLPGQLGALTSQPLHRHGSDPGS

C[C@@H]1[C@H](O)[C@@H](C)/C=C/C=C/C=C/C=C/C=C/C=C/C=C/[C@H](O[C@@H]2O[C@H](C)[C@@H](O)[C@H](N)[C@@H]2O)C[C@@H]2O[C@](O)(C[C@@H](O)C[C@@H](O)[C@H](O)CC[C@@H](O)C[C@@H](O)CC(=O)O[C@H]1C)C[C@H](O)[C@H]2C(=O)O [AMPHOTERICIN B]
CC50 at 72 h [1]: 37800 nM | CC50 at 72 h [2]: 27500 nM

COc1ccc(/C=C/CN(C)Cc2ccc3c(c2)OCCO3)c(F)c1
IC50 [3]: 43.5 nM

CN(C/C=C/c1ccc(-c2ccccc2)cc1)Cc1ccc2c(c1)OCCO2
IC50 [3]: 4.1 nM

CN(C/C=C/c1ccccc1Cl)Cc1ccc2c(c1)OCCO2
IC50 [3]: 90.3 nM

CN(C/C=C/c1ccccc1[N+](=O)[O-])Cc1ccc2c(c1)OCCO2
IC50 [3]: > 1000 nM

CN(C/C=C/c1cccc(F)c1)Cc1ccc2c(c1)OCCO2
IC50 [3]: > 1000 nM

CN(C/C=C/c1cccc(C(F)(F)F)c1)Cc1ccc2c(c1)OCCO2
IC50 [3]: > 1000 nM

CC(=O)NC[C@H]1CN(c2ccc(N3CCOCC3)c(F)c2)C(=O)O1
Activity (Staphylococcus aureus [4]): Active | Activity (Staphylococcus aureus [5]): Active | Activity (Staphylococcus aureus [6]): Active | Activity (Staphylococcus aureus [7]): Active | Activity (Staphylococcus aureus [8]): Active | Activity (Staphylococcus aureus [9]): Active | Activity (Staphylococcus aureus [10]): Active | Activity (Staphylococcus aureus [11]): Active | Activity (Staphylococcus aureus [12]): Active | Activity (Staphylococcus aureus [13]): Active

CN(C/C=C/c1ccccc1C(F)(F)F)Cc1ccc2c(c1)OCCO2
IC50 [3]: > 1000 nM

Cc1ncc2n1-c1ccc(Cl)cc1C(c1ccccc1F)=NC2 [MIDAZOLAM]
half-life at 2 µM [14]: 4.2 min

CN(C/C=C/c1ccc(F)cc1)Cc1ccc2c(c1)OCCO2
IC50 [3]: 20.1 nM

CN(C/C=C/c1ccc(C(F)(F)F)c(F)c1)Cc1ccc2c(c1)OCCO2
IC50 [3]: 13.7 nM

CN[C@H](CC(C)C)C(=O)N[C@H]1C(=O)N[C@@H](CC(N)=O)C(=O)N[C@H]2C(=O)N[C@H]3C(=O)N[C@H](C(=O)N[C@H](C(=O)O)c4cc(O)cc(O)c4-c4cc3ccc4O)[C@H](O)c3ccc(c(Cl)c3)Oc3cc2cc(c3O[C@@H]2O[C@H](CO)[C@@H](O)[C@H](O)[C@H]2O[C@H]2C[C@](C)(N)[C@H](O)[C@H](C)O2)Oc2ccc(cc2Cl)[C@H]1O
Activity (Staphylococcus aureus [4]): Active | Activity (Staphylococcus aureus [7]): Active | Activity (Staphylococcus aureus [8]): Active | Activity (Staphylococcus aureus [10]): Active | Activity (Staphylococcus aureus [12]): Active | Activity (Staphylococcus aureus [13]): Active

CN(C/C=C/c1ccc(C(C)(C)C)cc1)Cc1ccc2c(c1)OCCO2
IC50 [3]: 156 nM

CN(C/C=C/c1cccc2ccccc12)Cc1ccc2c(c1)OCCO2
IC50 [3]: > 1000 nM

CN(C/C=C/c1cccs1)Cc1ccc2c(c1)OCCO2
IC50 [3]: 221 nM

CN(C/C=C/c1ccc(Cl)cc1Cl)Cc1ccc2c(c1)OCCO2
IC50 [3]: 15 nM

Cc1ccc(/C=C/CN(C)Cc2ccc3c(c2)OCCO3)cc1.Cl
solubility at 24 h [15]: 6500 µg/mL | IC50 [16]: 4600 nM | IC50 [3]: 3.2 nM

CN(C/C=C/C1CCCC1)Cc1ccc2c(c1)OCCO2
IC50 [3]: 321 nM

CN(C/C=C/C1CCCCC1)Cc1ccc2c(c1)OCCO2
IC50 [3]: > 1000 nM

COc1ccc(/C=C/CN(C)Cc2ccc3c(c2)CCCCC3)cc1.Cl
IC50 [17]: 7.1 nM | solubility at 24 h [15]: 4200 µg/mL | IC50 [18]: 7.7 nM

CN(C/C=C/c1ccc([N+](=O)[O-])cc1)Cc1ccc2c(c1)OCCO2
IC50 [3]: 18.9 nM

Cc1ccccc1/C=C/CN(C)Cc1ccc2c(c1)OCCO2
IC50 [3]: > 1000 nM

CN(C/C=C/c1ccccc1F)Cc1ccc2c(c1)OCCO2
IC50 [3]: > 1000 nM

C/C=C/CN(C)Cc1ccc2c(c1)OCCO2
IC50 [3]: > 1000 nM

CCOc1ccc(/C=C/CN(C)Cc2ccc3c(c2)OCCO3)cc1
IC50 [3]: 8.2 nM

COc1ccc(/C=C/CN(C)Cc2ccc3c(c2)OCCO3)cc1
IC50 [3]: 48.6 nM

CN(C/C=C/c1ccccc1)Cc1ccc2c(c1)OCCO2
IC50 [3]: 371 nM

Cc1cccc(/C=C/CN(C)Cc2ccc3c(c2)OCCO3)c1
IC50 [3]: 43.4 nM

CN(C/C=C/c1ccco1)Cc1ccc2c(c1)OCCO2
IC50 [3]: 228 nM

COc1ccc(/C=C/CN(C)Cc2ccc3c(c2)OCCO3)cc1F
IC50 [3]: 57.9 nM

CN(C/C=C/C=C/C=C/c1ccc(C(F)(F)F)cc1)Cc1ccc2c(c1)OCCO2.Cl
IC50 [19]: 258 nM | IC50 [17]: 5.3 nM | solubility at 24 h [15]: 3300 µg/mL | IC50 [20]: 0.4 nM | IC50 [16]: 8700 nM | IC50 [21]: 1.2 nM | IC50 [3]: 1.6 nM | IC50 [18]: 3.7 nM

COc1cccc(/C=C/CN(C)Cc2ccc3c(c2)OCCO3)c1
IC50 [3]: > 1000 nM

CN(C/C=C/c1ccc(Cl)cc1)Cc1ccc2c(c1)OCCO2
IC50 [3]: 6.7 nM

CN(C/C=C/c1ccc(C(F)(F)F)cc1F)Cc1ccc2c(c1)OCCO2
IC50 [3]: 8.8 nM

CN(C/C=C/c1cccc([N+](=O)[O-])c1)Cc1ccc2c(c1)OCCO2
IC50 [3]: > 1000 nM

CN(C/C=C/c1ccc(C(F)(F)F)cc1)Cc1ccc2c(c1)CCCC2.Cl
solubility at 24 h [15]: 690 µg/mL

CN(C/C=C/c1ccc(Br)cc1)Cc1ccc2c(c1)OCCO2
IC50 [3]: 8.2 nM

CN(C/C=C/c1cccc(Cl)c1)Cc1ccc2c(c1)OCCO2
IC50 [3]: 112 nM

COc1ccccc1/C=C/CN(C)Cc1ccc2c(c1)OCCO2
IC50 [3]: > 1000 nM

CN(C/C=C/c1ccc(C(F)(F)F)cc1)Cc1ccc2c(c1)OCCO2.Cl
IC50 [19]: 341 nM | IC50 [17]: 6.5 nM | solubility at 24 h [15]: 13500 µg/mL | IC50 [20]: 1.1 nM | IC50 [21]: 1.2 nM | IC50 [3]: 2.9 nM | IC50 [18]: 5.9 nM

CN(C/C=C/c1ccc(C#N)cc1)Cc1ccc2c(c1)OCCO2
IC50 [3]: 19.2 nM
